What follows are compounds tested on Akt phosphorylation (assay: Akt Phosphorylation Assay (western blot), Panc-1). Conditions: at 10 μM, * = activation.
Format: cell-based, human
Procedure, shortened: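 Panc-1 (KRas G12D) cells were treated with compound at 10 μM final (0.3% DMSO) for 6 h at 37 °C, or with serial dilutions for IC50. Cells were either serum-starved overnight in 0.5% FBS and then stimulated with 1.5 ng/ml EGF for 15 min, or kept in 10% FBS without stimulation. Akt Ser473 phosphorylation in lysates was read by western blot.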

| Compound | % inh of Akt phosphorylation in Panc-1 |
| --- | --- |
| Cc1c(-c2ccn(C)n2)cn2nc(-c3nccn3C)nc(Nc3cc(C(F)(F)F)[nH]n3)c12 [Compound 259, 5-Methyl-2-(1-methyl-1H-imidazol-2-yl)-6-(1-methyl-1H-pyrazol-3-yl)-N-(5-(trifluoromethyl)-1H-pyrazol-3-yl)pyrrolo[2,1-f][1,2,4]triazin-4-amine] | D* (85-100% activation) |
| Cc1c(-c2ccn(C)n2)cn2nc(-c3nccn3C)nc(Oc3cc(N)[nH]n3)c12 [Compound 262, 3-((5-Methyl-2-(1-methyl-1H-imidazol-2-yl)-6-(1-methyl-1H-pyrazol-3-yl)pyrrolo[2,1-f][1,2,4]triazin-4-yl)oxy)-1H-pyrazol-5-amine] | B (26-49% inhibition) |
| Cc1c(-c2ccn(C)n2)cn2nc(-c3nccn3C)nc(Nc3cc(-c4cccnc4)[nH]n3)c12 [Compound 264, 5-Methyl-2-(1-methyl-1H-imidazol-2-yl)-6-(1-methyl-1H-pyrazol-3-yl)-N-(5-(pyridin-3-yl)-1H-pyrazol-3-yl)pyrrolo[2,1-f][1,2,4]triazin-4-amine] | D* (85-100% activation) |
| COc1cccc(-c2cn3nc(-c4nccn4C)nc(N[C@H]4C[C@H](OC)C4)c3c2-c2ccccn2)c1C [Compound 274, 6-(3-Methoxy-2-methylphenyl)-N-((1r,3r)-3-methoxycyclobutyl)-2-(1-methyl-1H-imidazol-2-yl)-5-(pyridin-2-yl)pyrrolo[2,1-f][1,2,4]triazin-4-amine] | D (85-100% inhibition) |
| COc1cccc(Nc2nc(-c3nccn3C)nn3ccc(-c4ccccc4)c23)n1 [Compound 40, N-(6-Methoxypyridin-2-yl)-2-(1-methyl-1H-imidazol-2-yl)-5-phenylpyrrolo[2,1-f][1,2,4]triazin-4-amine] | 0 (0% inhibition) |
| Cc1cc(Nc2nc(-c3nccn3C)nn3cc(-c4ccn(C)n4)c(C)c23)n[nH]1 [Compound 255, 5-Methyl-2-(1-methyl-1H-imidazol-2-yl)-6-(1-methyl-1H-pyrazol-3-yl)-N-(5-methyl-1H-pyrazol-3-yl)pyrrolo[2,1-f][1,2,4]triazin-4-amine] | D* (85-100% activation) |
| COc1cccc(-c2cn3nc(-c4nccn4C)nc(N[C@@H]4CC[C@H]4OC)c3c2-c2ccccc2)c1C (racemic) [Compound 272, rac 6-(3-Methoxy-2-methylphenyl)-N-((1R,2R)-2-methoxycyclobutyl)-2-(1-methyl-1H-imidazol-2-yl)-5-phenylpyrrolo[2,1-f][1,2,4]triazin-4-amine] | D (85-100% inhibition) |
| Cc1c(-c2ccn(C)n2)cn2nc(-c3nccn3C)nc(Nc3cc(-n4ccnc4C)ccn3)c12 [Compound 246, 5-Methyl-N-(4-(2-methyl-1H-imidazol-1-yl)pyridin-2-yl)-2-(1-methyl-1H-imidazol-2-yl)-6-(1-methyl-1H-pyrazol-3-yl)pyrrolo[2,1-f][1,2,4]triazin-4-amine] | D* (85-100% activation) |
| Cc1c(-c2ccn(C)n2)cn2nc(-c3nccn3C)nc(Nc3cc(-c4ccccc4)[nH]n3)c12 [Compound 263, 5-Methyl-2-(1-methyl-1H-imidazol-2-yl)-6-(1-methyl-1H-pyrazol-3-yl)-N-(5-phenyl-1H-pyrazol-3-yl)pyrrolo[2,1-f][1,2,4]triazin-4-amine] | D* (85-100% activation) |
| Cc1[nH]nc(Nc2nc(-c3nccn3C)nn3cc(-c4ccn(C)n4)c(C)c23)c1C [Compound 267, N-(4,5-Dimethyl-1H-pyrazol-3-yl)-5-methyl-2-(1-methyl-1H-imidazol-2-yl)-6-(1-methyl-1H-pyrazol-3-yl)pyrrolo[2,1-f][1,2,4]triazin-4-amine] | D* (85-100% activation) |
| Cn1ccnc1-c1nc(OCCN2CCCC2)c2c(-c3ccccc3)ccn2n1 [Compound 41, 2-(1-Methyl-1H-imidazol-2-yl)-5-phenyl-4-(2-(pyrrolidin-1-yl)ethoxy)pyrrolo[2,1-f][1,2,4]triazine] | A* (1-25% activation) |
| COc1cc(Nc2nc(-c3nccn3C)nn3cc(-c4ccn(C)n4)c(C)c23)n[nH]1 [Compound 252, N-(5-Methoxy-1H-pyrazol-3-yl)-5-methyl-2-(1-methyl-1H-imidazol-2-yl)-6-(1-methyl-1H-pyrazol-3-yl)pyrrolo[2,1-f][1,2,4]triazin-4-amine] | D* (85-100% activation) |
| Cc1c(-c2ccn(C)n2)cn2nc(-c3nccn3C)nc(Nc3cc(C(C)C)[nH]n3)c12 [Compound 268, N-(5-Isopropyl-1H-pyrazol-3-yl)-5-methyl-2-(1-methyl-1H-imidazol-2-yl)-6-(1-methyl-1H-pyrazol-3-yl)pyrrolo[2,1-f][1,2,4]triazin-4-amine] | D* (85-100% activation) |
| COc1cccc(Nc2nc(-c3nccn3C)nn3ccc(C)c23)n1 [Compound 38, N-(6-Methoxypyridin-2-yl)-5-methyl-2-(1-methyl-1H-imidazol-2-yl)pyrrolo[2,1-f][1,2,4]triazin-4-amine] | 0 (0% inhibition) |
| Cc1c(-c2ccn(C)n2)cn2nc(-c3nccn3C)nc(N3CCc4cc(C(F)(F)F)cnc43)c12 [Compound 251, 5-Methyl-2-(1-methyl-1H-imidazol-2-yl)-6-(1-methyl-1H-pyrazol-3-yl)-4-(5-(trifluoromethyl)-2,3-dihydro-1H-pyrrolo[2,3-b]pyridin-1-yl)pyrrolo[2,1-f][1,2,4]triazine] | A (1-25% inhibition) |
| COc1cc(Nc2nc(-c3nccn3C)nn3cc(-c4ccn(C)n4)c(C)c23)ncc1-n1cnc(C)c1 [Compound 244, N-(4-Methoxy-5-(4-methyl-1H-imidazol-1-yl)pyridin-2-yl)-5-methyl-2-(1-methyl-1H-imidazol-2-yl)-6-(1-methyl-1H-pyrazol-3-yl)pyrrolo[2,1-f][1,2,4]triazin-4-amine] | D* (85-100% activation) |
| Cc1c(-c2ccn(C)n2)cn2nc(-c3nccn3C)nc(Nc3ccc(-c4ccccn4)cn3)c12 [Compound 249, N-([2,3′-Bipyridin]-6′-yl)-5-methyl-2-(1-methyl-1H-imidazol-2-yl)-6-(1-methyl-1H-pyrazol-3-yl)pyrrolo[2,1-f][1,2,4]triazin-4-amine] | D* (85-100% activation) |
| Cc1c(-c2ccn(C)n2)cn2nc(-c3nccn3C)nc(Nc3cc(-c4ccccn4)[nH]n3)c12 [Compound 265, 5-Methyl-2-(1-methyl-1H-imidazol-2-yl)-6-(1-methyl-1H-pyrazol-3-yl)-N-(5-(pyridin-2-yl)-1H-pyrazol-3-yl)pyrrolo[2,1-f][1,2,4]triazin-4-amine] | D* (85-100% activation) |
| Cc1c(-c2ccn(C)n2)cn2nc(-c3nccn3C)nc(-n3[nH]c(N)cc3=O)c12 [Compound 261, 5-Amino-2-(5-methyl-2-(1-methyl-1H-imidazol-2-yl)-6-(1-methyl-1H-pyrazol-3-yl)pyrrolo[2,1-f][1,2,4]triazin-4-yl)-1,2-dihydro-3H-pyrazol-3-one] | B (26-49% inhibition) |
| Cc1c(-c2ccn(C)n2)cn2nc(-c3nccn3C)nc(Nc3cc(-n4ccnc4)ccn3)c12 [Compound 245, N-(4-(1H-imidazol-1-yl)pyridin-2-yl)-5-methyl-2-(1-methyl-1H-imidazol-2-yl)-6-(1-methyl-1H-pyrazol-3-yl)pyrrolo[2,1-f][1,2,4]triazin-4-amine] | D* (85-100% activation) |
| Cc1c(-c2ccn(C)n2)cn2nc(-c3nccn3C)nc(Nc3ccc(N4CCOCC4)cn3)c12 [Compound 247, 5-Methyl-2-(1-methyl-1H-imidazol-2-yl)-6-(1-methyl-1H-pyrazol-3-yl)-N-(5-morpholinopyridin-2-yl)pyrrolo[2,1-f][1,2,4]triazin-4-amine] | D* (85-100% activation) |
| CO[C@H]1C[C@H](Nc2nc(-c3nccn3C)nn3cc(-c4ccn(C)n4)c(C4CC4)c23)C1 [Compound 275, 5-Cyclopropyl-N-((1r,3r)-3-methoxycyclobutyl)-2-(1-methyl-1H-imidazol-2-yl)-6-(1-methyl-1H-pyrazol-3-yl)pyrrolo[2,1-f][1,2,4]triazin-4-amine] | D* (85-100% activation) |
| CCOc1cc(Nc2nc(-c3nccn3C)nn3cc(-c4ccn(C)n4)c(C)c23)n[nH]1 [Compound 260, N-(5-Ethoxy-1H-pyrazol-3-yl)-5-methyl-2-(1-methyl-1H-imidazol-2-yl)-6-(1-methyl-1H-pyrazol-3-yl)pyrrolo[2,1-f][1,2,4]triazin-4-amine] | C* (46-84% activation) |
| COc1ccc(F)c(-c2cn3nc(-c4nccn4C)nc(N[C@H]4C[C@H](OC)C4)c3c2-c2ccccc2)c1F [Compound 273, 6-(2,6-Difluoro-3-methoxyphenyl)-N-((1r,3r)-3-methoxycyclobutyl)-2-(1-methyl-1H-imidazol-2-yl)-5-phenylpyrrolo[2,1-f][1,2,4]triazin-4-amine] | D (85-100% inhibition) |
| COc1cccc(-c2cn3nc(-c4nccn4C)nc(N[C@H]4C[C@@H](OC)C4)c3c2-c2ccccc2)c1C [Compound 269, 6-(3-Methoxy-2-methylphenyl)-N-((1s,3s)-3-methoxycyclobutyl)-2-(1-methyl-1H-imidazol-2-yl)-5-phenylpyrrolo[2,1-f][1,2,4]triazin-4-amine] | C (50-84% inhibition) |
| Cc1c(-c2ccn(C)n2)cn2nc(-c3nccn3C)nc(Nc3cc(-c4ccccn4)ccn3)c12 [Compound 248, N-([2,4′-Bipyridin]-2′-yl)-5-methyl-2-(1-methyl-1H-imidazol-2-yl)-6-(1-methyl-1H-pyrazol-3-yl)pyrrolo[2,1-f][1,2,4]triazin-4-amine] | D* (85-100% activation) |

— patent publication US12459951B2, “Compounds that interact with RAS superfamily proteins for treatment of cancers, inflammatory diseases, rasopathies, and fibrotic disease” (SHY Therapeutics, LLC, priority 2022, dated 2025)
